From US20040253319A1, “Pharmaceutical compositions and method for alleviating side-effects of estrogen replacement therapy” (priority 2003, published 2004) come the findings set out here.

What all share (type): cell-based
In experiment [1] the test system is human breast cancer cells (MCF-7 cells). The experiment can be described thus: [3H]thymidine incorporation in human breast cancer cells (MCF-7). The note with it: estrogen 20-500 nM; FIG. 4. (In general: Dividing cells build labelled thymidine or BrdU into new DNA.)
The subject of experiment [2] is human smooth muscle cells. The experiment in a line: [3H]thymidine incorporation growth rate assay in human smooth muscle cells. The note with it: estrogen 50-450 nM; FIG. 1. Here is the method: Rationale: As described, the excessive growth rate of smooth muscle cells and cancer cells is directly related to accelerated atherosclerotic process and malignant tumor growth, respectively. Cultured cell growth rate is estimated according to de novo DNA synthesis assessed (i.e., [^3H]Thymidine Incorporation) according to the amount of Tritium-labeled metabolic precursor incorporated into cellular DNA during incubation period.
Human smooth muscle cells (Aortic-Cambrex Corporation, San Diego, Calif., Cat. No. CC-2571) were seeded at a cell concentration of 40,000 cells/ml (0.5 mL) per well in 24-well plates containing an appropriate growth medium (DMEM plus 10% FBS). After three hours incubation, cells were washed and fresh culture media containing tested compositions at indicated amounts were added Cells were allowed to culture for an additional 3-4 days. At the end of the culture, an aliquot of [^3H]thymidine (DuPont-NEN, Boston, Mass.) was added at a final concentration of 1 microCi/mL ([…]). After 24 hours, cells were washed in ice-cold Dulbecco's PBS, fixed in cold 10% TCA (trichloroacetic acid) for at least 0.5 hour, and incubated with 0.5 mL 0.1N sodium hydroxide for 2 hours at 37° C. Cell bound [^3H]thymidine was extracted in 0.1 N NaOH and measured in a liquid scintillation counter (LS 8000, Beckman Coulter). […]

Experiment [3] deals with human smooth muscle cells. The experiment can be described thus: Smooth muscle cell invasion assay (Matrigel). The note with it: estrogen 100 nM; FIG. 2. The method, then:
Elevated capacity of smooth muscle cells and cancer cells to invade extracellular matrix is directly related to the initiation of the atherosclerotic plaque formation and to metastasis formation, respectively. Cultured cell invasiveness is estimated according to the number of cells penetrating through a porous plastic membrane covered with natural extracellular matrix ([…], Beckton-Dickinson). Cultured cells were grown in 75 cm^2 flasks in culture medium containing 10% fetal bovine serum (FBS) to near complete confluency of 37° C. For the last 48 hours of incubation de novo synthesized cellular DNA was metabolically labelled by adding 1 microCi/mL [^3H]thymidine. Labelled cells were detached from plastic surface by treating cell layer with 0.025% trypsin in PBS. Cultured cells were seeded on the top surface of the bottom plastic membrane of the inserts placed in the wells of a 24 well plastic plate in 0.5 mL of culture medium containing 10% fetal bovine serum (FBS) at concentration 40,000 cell/mL. Insert bottom membrane has controlled size pores of 8 micron in diameter and is covered with the layer of Matrigel. […] Number of cells penetrated to the other side of the porous membrane was assessed according to amount of lower membrane surface-bound radioactivity as measured with scintillation counter (LS 8000, Beckman-Coulter).

The subject of experiment [4] is VEGF release in human breast cancer cells (MCF-7 cells). The experiment can be described thus: VEGF release in human breast cancer cells (cytokine expression assay, ELISA). The note with it: estrogen 10-100 nM; FIG. 6. The source says:
Measurement of VEGF (Vascular Endothelial Growth Factor) in Cancer Cells Rationale: New vascularization formation (i.e., neo-vascularization) within a tumor bed is essential to the tumor growth. Without the new blood vessel formulation, most tumors can only grow to approximately 1 mm in diameter because the supply of nutrient and oxygen to the growing tumor cells depends on the blood vessels around the tumor. A tumor has the ability to attract new blood vessel formation (neo-vascularization) by releasing a protein known as vascular endothelial growth factor (VEGF). It is desirable to inhibit the VEGF expression in cancer cells so as to prevent neo-vascularization and inhibit tumor growth. (See, Vascular Endothelial Cell Growth Factor (VEGF), an Emerging Target for Cancer Chemotherapy, Shinkaruk, et al., Current Medicinal Chemistry and Anti-Cancer Agents, 2003, Vol. 3, pages 95-117).
The level of cellular vascular endothelium growth factor (VEGF) production is an indicator of a stimulation of neo-vascularization processes. A rate of cytokine synthesis and secretion into medium by culture cells was measured with a commercially available immunochemical assay kit. […] The level of cytokines secreted into cell culture medium was measured using ELISA kits according to manufacturer's protocol (R&D Systems).
In general terms: An ELISA detects its analyte on a solid surface through an enzyme-linked reagent.

The subject of experiment [5] is interleukin-6 release in human smooth muscle cells. The experiment can be described thus: Interleukin-6 release in human smooth muscle cells. The note with it: estrogen 100 nM; FIG. 3. The source says: Rationale: Cytokine expression and its involvement in inflammatory responses are known. It has been recently accepted that vascular and smooth muscle pathology manifested in cardiovascular diseases is one of the inflammatory responses during atherosclerosis and hypertension. Interleukin-6 is one of the key cytokines which trigger the inflammation process. Over-expression of interleukin-6 in smooth muscle cells under pathological stimuli may further amplify the inflammatory lesions. The present compositions are designed to inhibit over-expression of cytokine production in smooth muscle cells (in particular, the interleukin-6). By inhibiting the expression of interleukin-6 in smooth muscle cells, the present compositions are believed to be a remedy alleviating the side-effects of estrogen replacement therapy in post-menopausal women.
The level of cellular vascular endothelium growth factor (VEGF) production is an indicator of a stimulation of neo-vascularization processes. A rate of cytokine synthesis and secretion into medium by culture cells was measured with a commercially available immunochemical assay kit. Cultured cells were seeded in 48 well plates in 0.5 mL of medium containing 10% FBS at concentration 40,000 cell/mL. […] The level of cytokines secreted into cell culture medium was measured using ELISA kits according to manufacturer's protocol (R&D Systems).

Turning to estrogen, the “[3H]thymidine incorporation in human breast cancer cells (MCF-7)” value in experiment [1] is given as “induce an increase”. Moreover, in experiment [2], the “[3H]thymidine incorporation in human smooth muscle cells” value is on record as “induce an increase”. Besides, the “human smooth muscle cell invasion” value in experiment [3] is listed as “induce an increase”. Further, in experiment [4], the “VEGF release in human breast cancer cells (MCF-7)” value was “induce an increased”. Also, in experiment [5], the “interleukin-6 release in human smooth muscle cells” value is given as “induce an increased”.
